In patent US5457119A, “A89271 factors and processes for their production” (priority 1994, dated 1995):
In brackets after ≈: the same amount, converted by molar mass.

Key:
Type in all cases: cell-based
Aspergillus fumigatus [1] = test: In vitro antifungal activity, RPMI and 10% fetal calf serum broth; conditions: Table 5
Text: (§1) In those tables, a dash or "N.T." means the material was not tested.

Candida albicans [2] = test: as above
Text: as §1

[3] = tested on: Trichophyton mentagrophytes; test: as above
Text: as §1

Aspergillus fumigatus [4] = test: In vitro antifungal activity, Sabouraud's and Dextrose broth
Text: as §1

Candida albicans [5] = test: as above
Text: as §1

[6] = tested on: Trichophyton mentagrophytes; test: as above
Text: as §1

Aspergillus fumigatus [7] = test: In vitro antifungal activity, Antibiotic 3 broth (Difco); conditions: Table 7
Text: as §1

Candida albicans [8] = test: as above; conditions: Table 7
Text: as §1

[9] = tested on: Trichophyton mentagrophytes; test: as above
Text: as §1

[10] = tested on: L1210 murine leukemia cell line; test: Disk diffusion soft agar colony formation assay; conditions: 200 zone units = 6 MM
Experimental: (§2) The method of performing the disk diffusion soft agar colony […] assay is described in Chapter 3 of Cytotoxic Anticancer Drugs: Models and Concepts for Drug Discovery and Development (Frederick A. Valeriote, et al., eds., 1990). In addition to the procedure taught in this reference, one mL ethanol was added to each dry factor in a vial, and the desired concentration of solution was placed on a paper disk. The disk was dried and then placed on soft agar plates as described in the reference.
L1210 = murine leukemia cell line
(§3) ^2 Measurement in zone units; 200 zone units = 6 MM

[11] = tested on: P03 murine pancreatic solid tumor cell line; test: Disk diffusion soft agar colony formation assay; conditions: 200 zone units = 6 MM
Experimental: as §2
P03 = murine pancreatic solid tumor cell line
as §3

[12] = tested on: C38 murine colon solid tumor cell line; test: Disk diffusion soft agar colony formation assay; conditions: 200 zone units = 6 MM
Experimental: as §2
C38 = murine colon solid tumor cell line
as §3

[13] = tested on: Mam17 murine mammary solid tumor cell line; test: Disk diffusion soft agar colony formation assay; conditions: 200 zone units = 6 MM
Experimental: as §2
Mam17 = murine mammary solid tumor cell line
as §3

[14] = tested on: H8 human colon solid tumor cell line; test: Disk diffusion soft agar colony formation assay; conditions: 200 zone units = 6 MM
Experimental: as §2
H8 = human colon solid tumor cell line
as §3

[15] = tested on: LML "Low Malignancy Line" fibroblast; test: Disk diffusion soft agar colony formation assay; conditions: 200 zone units = 6 MM
Experimental: as §2
LML = "Low Malignancy Line" fibroblast
as §3

[16] = tested on: CX-1 human colon solid tumor cell line; test: Disk diffusion soft agar colony formation assay; conditions: factor line, no dose given, 200 zone units = 6 MM
Experimental: as §2
CX1 = human colon solid tumor cell line
as §3

[17] = Table 5, RPMI and 10% Fetal Calf Serum Broth
[18] = unlabelled line below the (80 ug) line
[19] = Table 1, RPMI and 10% Fetal Calf Serum Broth
[20] = Table 3, RPMI & 10% Fetal Calf Serum Broth
[21] = unlabelled line below the (45 ug) line

Row | SMILES | MIC (Aspergillus fumigatus [1]) | MIC (Candida albicans [2]; [17]) | MIC (Aspergillus fumigatus [4]; Table 6) | MIC (Candida albicans [5]; Table 6) | MIC (Aspergillus fumigatus [7]) | MIC (Candida albicans [8]) | Measurement in zone units ([10]; 20 ug per disk) | Measurement in zone units ([10]; 80 ug per disk) | Measurement in zone units ([10]; factor line, no dose given) | Measurement in zone units ([12]; 20 ug per disk) | Measurement in zone units ([12]; factor line, no dose given) | Measurement in zone units ([13]; factor line, no dose given) | Measurement in zone units ([14]; 20 ug per disk) | Measurement in zone units ([15]; 20 ug per disk) | Measurement in zone units ([15]; 80 ug per disk) | MIC (Candida albicans [2]; [20]) | MIC (Aspergillus fumigatus [4]; Table 4) | MIC (Candida albicans [5]; Table 4) | MIC [3, 20] | MIC ([6]; Table 4) | other results
1 | [C-]#[N+]C1C(C)(C=C)CCC2C(C)(C)c3cccc4[nH]c(C(C)(C)C=C)c(c34)C12O (stereo not drawn) [A89271 E] | > 80 µg/mL | 2.5 µg/mL (≈ 6.43 µM) | > 80 µg/mL | 5 µg/mL (≈ 12.9 µM) | > 80 µg/mL | 5.0 µg/mL (≈ 12.9 µM) | 100-200 zone units | 250-300 zone units | 280 zone units | 300-360 zone units | 300 zone units | 350 zone units | 100-180 zone units | 80 zone units | 100-180 zone units |  |  |  |  |  | MIC [3, 17]: 2.5 µg/mL (≈ 6.43 µM); MIC ([6]; Table 6): 2.5 µg/mL (≈ 6.43 µM); MIC ([9]; Table 7): 5.0 µg/mL (≈ 12.9 µM); Measurement in zone units [10, 18]: 200-220 zone units; Measurement in zone units ([11]; 80 ug per disk): 440-500 zone units; Measurement in zone units [11, 18]: 460 zone units; Measurement in zone units [12, 18]: 480-500 zone units; Measurement in zone units ([14]; 80 ug per disk): 220-240 zone units
2 | C[C@@H]1[C@H](O)[C@@H](C)/C=C/C=C/C=C/C=C/C=C/C=C/C=C/[C@H](O[C@@H]2O[C@H](C)[C@@H](O)[C@H](N)[C@@H]2O)C[C@@H]2O[C@](O)(C[C@@H](O)C[C@@H](O)[C@H](O)CC[C@@H](O)C[C@@H](O)CC(=O)O[C@H]1C)C[C@H](O)[C@H]2C(=O)O [Amphotericin B, reference compound] | 1.25 µg/mL (≈ 1.35 µM) | 0.625 µg/mL (≈ 0.676 µM) | 5.0 µg/mL (≈ 5.41 µM) | 0.312 µg/mL (≈ 0.338 µM) | 0.039 µg/mL (≈ 0.0422 µM) | 0.02 µg/mL (≈ 0.0216 µM) |  |  |  |  |  |  |  |  |  | 0.156 µg/mL (≈ 0.169 µM) | 1.25 µg/mL (≈ 1.35 µM) | 0.312 µg/mL (≈ 0.338 µM) |  |  | MIC (Candida albicans [2]; [19]): 0.156 µg/mL (≈ 0.169 µM); MIC (Aspergillus fumigatus [4]; Table 2): 1.25 µg/mL (≈ 1.35 µM); MIC (Candida albicans [5]; Table 2): 0.625 µg/mL (≈ 0.676 µM)
3 | [C-]#[N+]C1C(C)(C=C)C(Cl)CC2C(C)(C)c3cccc4[nH]c(C(C)(C)C=C)c(c34)C21O (stereo not drawn) [A89271 C] |  |  |  |  |  |  |  |  |  |  |  |  |  |  |  | 1.25 µg/mL (≈ 2.96 µM) | > 80 µg/mL | 2.5 µg/mL (≈ 5.91 µM) | 0.625 µg/mL (≈ 1.48 µM) | > 80 µg/mL | 
4 | [C-]#[N+]C12C(O)C(O)C(C)(C)c3[nH]c4cccc5c4c3C1(O)C(CC(Cl)C2(C)C=C)C5(C)C (stereo not drawn) [A89271 D] |  |  |  |  |  |  |  |  |  |  |  |  |  |  |  | 1.25 µg/mL (≈ 2.75 µM) | > 80 µg/mL | 1.25 µg/mL (≈ 2.75 µM) | 0.625 µg/mL (≈ 1.37 µM) | > 80 µg/mL | 
5 | [C-]#[N+]C12C3OC3C(C)(C)c3[nH]c4cccc5c4c3C1(O)C(CC(Cl)C2(C)C=C)C5(C)C (stereo not drawn) [A89271 F] |  |  |  |  |  |  | 300-350 zone units | 350-460 zone units | 200-250 zone units | 590 zone units | 500 zone units |  | 200-350 zone units | 0-80 zone units | 0-120 zone units | 1.25 µg/mL (≈ 2.86 µM) | > 80 µg/mL | 1.25 µg/mL (≈ 2.86 µM) | 1.25 µg/mL (≈ 2.86 µM) | > 80 µg/mL | Measurement in zone units ([10]; 8 ug per disk): 250-280 zone units; Measurement in zone units ([10]; 16 ug per disk): 0-220 zone units; Measurement in zone units ([11]; 16 ug per disk): 440 zone units; Measurement in zone units ([11]; factor line, no dose given): 500 zone units; Measurement in zone units ([12]; 16 ug per disk): 460 zone units; Measurement in zone units ([12]; 80 ug per disk): 550-580 zone units; Measurement in zone units ([13]; 8 ug per disk): 250 zone units; Measurement in zone units ([14]; 16 ug per disk): 200-330 zone units; Measurement in zone units ([14]; 80 ug per disk): 200-400 zone units; Measurement in zone units ([14]; factor line, no dose given): 200-300 zone units; Measurement in zone units ([15]; 8 ug per disk): 0-400 zone units
6 | [C-]#[N+]C12C3OC3C(C)(C)C3=Nc4cccc5c4C3(O)C1(O)C(CC(Cl)C2(C)C=C)C5(C)C (stereo not drawn) [A89271 A] |  |  |  |  |  |  |  |  | 0-400 zone units |  | 650 zone units |  |  |  |  |  |  |  |  |  | MIC (Candida albicans [2]; [19]): 2.5 µg/mL (≈ 5.52 µM); MIC [3, 19]: > 20 µg/mL; MIC (Aspergillus fumigatus [4]; Table 2): 80 µg/mL (≈ 177 µM); MIC (Candida albicans [5]; Table 2): 2.5 µg/mL (≈ 5.52 µM); MIC ([6]; Table 2): 10 µg/mL (≈ 22.1 µM); Measurement in zone units ([10]; 9 ug per disk): 200-250 zone units; Measurement in zone units ([10]; 11 ug per disk): 250-320 zone units; Measurement in zone units ([11]; 9 ug per disk): 500 zone units; Measurement in zone units ([11]; factor line, no dose given): 650 zone units; Measurement in zone units ([12]; 9 ug per disk): 480 zone units; Measurement in zone units ([12]; 11 ug per disk): 610 zone units; Measurement in zone units ([12]; 45 ug per disk): 670 zone units; Measurement in zone units [12, 21]: 750 zone units; Measurement in zone units [16]: 600-650 zone units; Measurement in zone units ([14]; 9 ug per disk): 200-330 zone units; Measurement in zone units ([14]; 11 ug per disk): 250-420 zone units; Measurement in zone units [14, 21]: 300-470 zone units; Measurement in zone units ([15]; 11 ug per disk): 0-300 zone units; Measurement in zone units [15, 21]: 0-300 zone units
7 | [C-]#[N+]C12C3OC3C(C)(C)c3[nH]c4cccc5c4c3C1(O)C(CCC2(C)C=C)C5(C)C (stereo not drawn) [A89271 I] | > 80 µg/mL | 1.25 µg/mL (≈ 3.11 µM) | > 80 µg/mL | 2.5 µg/mL (≈ 6.21 µM) | > 80 µg/mL | 1.25 µg/mL (≈ 3.11 µM) | 100-250 zone units | 200-220 zone units | 260 zone units | 680 zone units |  | 250 zone units | 100-180 zone units | 0-180 zone units | 100-200 zone units |  |  |  |  |  | MIC [3, 17]: 2.5 µg/mL (≈ 6.21 µM); MIC ([6]; Table 6): 2.5 µg/mL (≈ 6.21 µM); MIC ([9]; Table 7): 5.0 µg/mL (≈ 12.4 µM); Measurement in zone units ([10]; 16 ug per disk): 110 zone units; Measurement in zone units ([11]; 16 ug per disk): 420 zone units; Measurement in zone units ([11]; 80 ug per disk): 490 zone units; Measurement in zone units ([12]; 16 ug per disk): 390 zone units; Measurement in zone units ([12]; 80 ug per disk): 500 zone units; Measurement in zone units ([14]; 16 ug per disk): 120 zone units; Measurement in zone units ([15]; factor line, no dose given): 0-200 zone units
8 | Cc1cccc(N(C)C(=S)Oc2ccc3ccccc3c2)c1 [Tolnaftate, reference compound] |  |  |  |  |  |  |  |  |  |  |  |  |  |  |  |  |  |  |  |  | MIC ([3]; Table 1, RPMI and 10% Fetal Calf Serum Broth, read-out: MIC): 0.039 µg/mL (≈ 0.127 µM); MIC ([3]; Table 3, RPMI & 10% Fetal Calf Serum Broth, read-out: MIC): < 0.02 µg/mL; MIC ([3]; Table 5, RPMI and 10% Fetal Calf Serum Broth, read-out: MIC): 0.02 µg/mL (≈ 0.0651 µM); MIC ([6]; Table 2, read-out: MIC): 0.039 µg/mL (≈ 0.127 µM); MIC ([6]; Table 4, read-out: MIC): < 0.02 µg/mL; MIC ([6]; Table 6, read-out: MIC): 0.02 µg/mL (≈ 0.0651 µM); MIC ([9]; Table 7, read-out: MIC): 0.02 µg/mL (≈ 0.0651 µM)
9 | [C-]#[N+]C1C2c3c(C(C)(C)C=C)[nH]c4cccc(c34)C(C)(C)C2CC(Cl)C1(C)C=C (stereo not drawn) [A89271 B] |  |  |  |  |  |  | 100-200 zone units | 200-250 zone units | 210 zone units | 260-400 zone units |  | 220 zone units | 180 zone units | 0-100 zone units | 80-250 zone units | 1.25 µg/mL (≈ 3.07 µM) | 20 µg/mL (≈ 49.1 µM) | 1.25 µg/mL (≈ 3.07 µM) | 2.5 µg/mL (≈ 6.14 µM) | > 80 µg/mL | Measurement in zone units ([12]; 80 ug per disk): 430 zone units; Measurement in zone units [16]: 220 zone units; Measurement in zone units ([14]; 80 ug per disk): 200-300 zone units; Measurement in zone units ([15]; factor line, no dose given): 0-250 zone units
